Experimental data as given in patent publication US20090012152A1, “Use of Tetramic Acid Derivatives for Controlling Insects from the Genus of the Plane Lice (Sternorrhyncha)” (Bayer CropScience Aktiengesellschaft, priority 2005, published 2009).

Tests used:
Type in all cases: in vivo
[1] = test system: Psylla piri; experiment: Example 6: pear trees treated against Psylla piri; details: larvae on shoots, % a.i.: amitraz 0.05, I-9, I-2, I-1 0.096
Method: In three replications, in each case 4 about 4-year-old pear trees of the cultivar “Williams Christ” are treated against Psylla piri. Two applications are carried out at an interval of 11 days using a motor-operated barrow-mounted sprayer. Here, the active compounds Example (I-9) (240 SC), Example (I-2) (240 SC) and Example (I-1) (240 SC) are tested against the commercial standard Amitraz (200 EC) at the stated amounts. The application rate is 2000 l of water/ha.
Evaluation is carried out 3, 10 and 20 days after the last treatment by rating the kill of the larvae in percent on the shoots.

[2] = test system: Pseudaulacaspis prunicola; experiment: Example 23: Japanese apricot trees treated against Pseudaulacaspis prunicola; details: 58 days after treatment, nymphs on shoots, % a.i.: Supracide EC 0.04, I-4 0.0075
Method: In six replications, about 16-year-old Japanese apricot trees of the cultivar “Shirokag” are treated against Pseudaulacaspis prunicola. The application is carried out using a sprayer. Here, the active compound Example (I-4) (200 SC) is tested against the commercial standard Supracide EC (400 EC), at the stated application rates. The application rate is 1500 l of water/ha.
Evaluation is carried out 58 days after the treatment by rating the kill of the nymphs on the shoots.

[3] = test system: Quadraspidiotus perniciosus; experiment: Example 17: apple trees treated against San Jose scale louse; details: 43 days after last of two treatments, on shoots, g a.i./ha/m crown height: Dursban 223, I-4 72
Method: In three replications, four about 18-year-old apple trees of the cultivar “Red Chief” are treated against the San Jose scale louse Quadraspidiotus perniciosus. Two applications are carried out at an interval of 15 days using a motor-operated barrow-mounted sprayer. Here, the active compound Example (I-4) (240 SC) is applied in a tank mix with 0.2% a.i. of rapeseed oil methyl ester (500 EW) at the stated application rate and the commercial standard Dursban (446 EC) is applied at the stated application rate. The application rate is 1500 l of water/ha.
Evaluation is carried out 43 days after the last treatment by rating the kill on the shoots.

[4] = test system: Saissetia oleae; experiment: Example 14: orange trees (Navelina) treated against Saissetia oleae; details: 120 d after treatment, kill on branches, % a.i.: Dursban 0.096, I-4 0.012, I-9 0.0054, pyriproxyfen 0.005
Method: In three replications, orange trees of the cultivar “Navelina” are treated against Saissetia oleae. Here, the active compounds Example (I-4) (240 SC) and Example (I-9) (240 SC) in a tank mix with 0.1% of rapeseed oil methyl ester (500 EW) at the stated application rate are tested against the commercial standards Dursban (480 EC) and pyriproxyfen (100 EC) at the stated application rate. The application is carried out using a motor-operated knapsack sprayer. The application rate is 3200 l of water/ha.
Evaluation is carried out 120 days after the treatment by rating the kill of the animals on the branches.

[5] = test system: Pseudaulacaspis pentagona; experiment: Example 24: tea plants treated against Pseudaulacaspis pentagona; details: crawlers on tea plants, % a.i.: Supracide EC 0.04, I-4 0.01
Method: In nine replications, about 7-week-old tea plants of the cultivar “Yakubita” are treated against Pseudaulacaspis pentagona. Here, the active compound Example (I-4) (200 SC) is tested against the commercial standard Supracide EC (400 EC) at the stated application rates. The application is carried out using a sprayer operated with pressurized air. Evaluation is carried out 16 and 35 days after the treatment by rating the kill of the crawlers on the plants.

[6] = test system: Dysmicoceus brevipes; experiment: Example 30a: guyabano tree treated against Dysmicoceus brevipes; details: on fruits, g a.i./m crown height: Lorsban 180, I-4 48
Method: In three replications, in each case one guyabano tree is treated against Dysmicoceus brevipes. Here, the active compound Example (I-4) (240 SC), in a tank mix with 0.1% of rapeseed oil methyl ester (500 EW), is, at the stated application rate, tested against the commercial standard Lorsban (500 EC), at the stated application rate. The application is carried out using a motor-operated knapsack sprayer. Here, each plant is treated with spray liquor.
Evaluation is carried out 3, 7 and 14 days after the treatment by rating the kill in percent on the fruits.

[7] = test system: Aleurothrixus floccosus; experiment: Example 39: orange trees treated against Aleurothrixus floccosus; details: on branches, % a.i.: Juvinal 0.005, I-4 0.0072
Method: In three replications, about 55-year-old orange trees of the cultivar “Amargo” are treated against Aleurothrixus floccosus. The application is carried out using a motor-operated knapsack sprayer. Here, the active compound Example (I-4) (240 SC), in a tank mix with 0.1% a.i. of rapeseed oil methyl ester (500 EW), is tested at the stated application rate against the standard Juvinal (100 EC) at the stated application rates, applied once. The application rate is 2630 l of water/ha.
Evaluation is carried out 36, 51, 62 and 76 days after the treatment by rating the kill on the branches.

[8] = test system: Macrosiphum euphorbiae; experiment: Example 55: strawberry plants treated against Macrosiphum euphorbiae; details: nymphs on strawberry plants, g a.i./ha: Calypso 120, I-4 75
Method: In four replications, plots of a size of about 3 m^2 with 3-week-old strawberry plants are treated against Macrosiphum euphorbiae and Rhodobium porosum. The application is carried out using a knapsack sprayer operated with pressurized air. Here, the active compound Example (I-4) (150 OD) and the commercial standard Calypso (480 SC) are tested at the stated application rates. Here, the standard is sprayed as a tank mix with 0.03% of Motto (adjuvant). The application rate is 500 l of water/ha.
Evaluation is carried out 7 and 14 days after the second treatment by rating the kill of the nymphs on the plants.

CCOC(=O)OC1=C(c2cc(C)ccc2Br)C(=O)NC12CCC(OC)CC2 (centres unmarked) [Example (I-2)]
Kill (%) 3 d ([1]; 3 d after last of two treatments): 96.7% | Kill (%) 10 d ([1]; 10 d after last of two treatments): 99% | Kill (%) 20 d ([1]; 20 d after last of two treatments): 97.9%

CCOC(=O)OC1=C(c2cc(C)ccc2C)C(=O)NC12CCC(OC)CC2 (centres unmarked) [Example (I-4)]
Kill (%) 58 days [2]: 92.3% | Kill (%) [3]: 90.4% | Effect (%) 120 d [4]: 98% | Kill (%) 16 d ([5]; 16 d after treatment): 81.8% | Kill (%) 35 d ([5]; 35 d after treatment): 75% | Kill (%) 3 days ([6]; 3 days after treatment): 89.8% | Kill (%) 7 days ([6]; 7 days after treatment): 100% | Kill (%) 14 days ([6]; 14 days after treatment): 100% | Kill (%) 36 d ([7]; 36 d after treatment): 81.1% | Kill (%) 51 d ([7]; 51 d after treatment): 81.5% | Kill (%) 62 d ([7]; 62 d after treatment): 92.1% | Kill (%) 76 d ([7]; 76 d after treatment): 92.9% | Macrosiphum euphorbiae Kill (%) 7 d ([8]; 7 d after second treatment): 62.2% | Macrosiphum euphorbiae Kill (%) 14 d ([8]; 14 d after second treatment): 94%
